Results reported in patent US7501434B2, “6-carboxy-normorphinan derivatives, synthesis and uses thereof” (Wyeth, priority 2006, dated 2009).

Tests used:
[1] = molecular target: Kappa 1 (UniProt P41144); type: binding
[2] = molecular target: Mu (h) (Homo sapiens, UniProt P35372); type: binding
[3] = Partition coefficient determination (1-octanol/water); type: physicochemical; details: pH: 2.2
Method: The partition coefficient of Compound I-1 was determined by the following method. • 1. 20.131 mg of Compound I-1 was dissolved in 2 mL of water saturated with 1-octanol. • 2. 2 mL of 1-octanol saturated with water was added to the solution from step 1. • 3. The two layers were shaken over night at room temperature. • 4. The two layers were analyzed for the concentration of Compound I-1.

[4] = molecular target: T1, human recombinant Mu opioid receptors (Homo sapiens, UniProt P35372); test: cell-based
T1 construct: expressed in transfected cells; host or cells: CHO cells
T1 sequence (P35372 whole entry): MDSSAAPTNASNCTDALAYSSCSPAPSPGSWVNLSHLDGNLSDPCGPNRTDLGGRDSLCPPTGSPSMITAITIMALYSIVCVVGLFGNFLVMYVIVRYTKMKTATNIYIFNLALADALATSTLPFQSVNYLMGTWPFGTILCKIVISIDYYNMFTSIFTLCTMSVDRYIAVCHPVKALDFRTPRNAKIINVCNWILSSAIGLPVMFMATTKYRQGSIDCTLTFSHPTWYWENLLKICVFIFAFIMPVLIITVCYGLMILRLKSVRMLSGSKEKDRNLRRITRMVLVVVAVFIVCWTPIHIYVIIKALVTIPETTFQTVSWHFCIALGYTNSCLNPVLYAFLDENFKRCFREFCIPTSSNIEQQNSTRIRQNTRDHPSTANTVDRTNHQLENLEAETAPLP

[5] = Administration in GI-physiology altered dogs (plasma pharmacokinetics); type: in vivo; details: male, beagle, dog, po, 50 mg, single 50 mg capsule
Method: A 50 mg capsule formulation of Compound Ia was screened in gastrointestinal (GI) physiology regulated male beagle dogs. Atropine (˜20 μg/kg; IV) and pentagastrin (˜10 μg/kg; IM) were administered 15 minutes prior to formulation administration and another dose of pentagastrin (10 μg/kg; IM) was administered 30 minutes post dose. Atropine slows down canine GI motility and pentagastrin decreases pH resulting in GI conditions almost similar to that of humans. The capsules ([…]) via oral administration following an overnight fast and blood samples were drawn at 0 (predose), 0.5, 1, 2, 3, 4, 6, 8, 12, 24 and 48 hours after dosing; plasma was separated and assayed for Compound Ia content. All dogs were fed 4 hours post dose.
50 mg Compound Ia capsule contained neat 51.5 mg of Compound Ia 97% purity (50 mg of Compound Ia), filled in #AA-DB HGC Swedish orange capsule.
Bioanalytical results were received and a preliminary PK assessment was performed. Individual dog plasma Compound Ia concentration-time profiles were subjected to noncompartmental pharmacokinetic analyses (WinNonlin, Model 200). The following pharmacokinetic parameters were determined for each dog, and descriptive statistics were calculated: AUC, Cmax, and tmax.

[6] = Aqueous solubility; type: physicochemical; details: thermodynamic from solid; pH: 2.2, water
Method: >56 mg/ml (pH: 2.2) by adding certain additive amounts of I-1 to 1 ml of water.

[7] = molecular target: Delta 2 (h) (Homo sapiens, UniProt P41143); test: Neurotransmitter assay (radioligand binding), Delta 2 (h); details: radioligand [3H]-Naltrindole
Chain of Delta 2 (h) (P41143 whole entry): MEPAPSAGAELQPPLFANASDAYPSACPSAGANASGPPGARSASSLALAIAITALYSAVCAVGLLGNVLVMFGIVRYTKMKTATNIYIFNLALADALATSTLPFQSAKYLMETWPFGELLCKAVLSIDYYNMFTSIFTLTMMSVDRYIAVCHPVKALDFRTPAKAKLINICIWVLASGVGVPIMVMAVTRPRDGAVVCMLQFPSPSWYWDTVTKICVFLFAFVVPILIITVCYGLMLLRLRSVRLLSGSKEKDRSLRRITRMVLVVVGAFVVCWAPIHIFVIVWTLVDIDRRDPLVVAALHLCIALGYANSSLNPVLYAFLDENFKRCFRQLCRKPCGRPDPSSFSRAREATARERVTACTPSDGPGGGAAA

[8] = molecular target: μ opioid (Homo sapiens, UniProt P35372); details: from WO2006/127898 and WO2006/127899; cited from earlier work
Chain of μ opioid (P35372 whole entry): as the sequence (P35372 whole entry) above

[9] = white crystalline powder from Mallinckrodt Pharmaceuticals; cited from earlier work

Chain of Mu (h) (P35372 whole entry): as above

## C[N+]1(CC2CC2)CC[C@]23c4c5ccc(O)c4O[C@H]2[C@](O)(C(=O)O)C[C@@]3(O)[C@H]1C5 (stereo partly drawn) [Compound Ia, (3R,4R,4aS,6aR,11bS)-6-carboxy-3-(cyclopropylmethyl)-4-a,6,8-trihydroxy-3-methyl-1,2,3,4,4a,5,6,6a-octahydro-4,11-methano[1]benzofuro[3′,2′:2,3]cyclopenta[1,2-c]pyridin-3-ium]
[1]
  Percent Inhibition (Average; N = 2): 82.09%
[2]
  Percent Inhibition (Average; N = 2): 81.62%
[3]
  logP: -2.15
[4]
  IC50: 170 nM
[5]; Dog 1, PO
  AUC(0-inf): 4690 ng·h/mL
  AUC(0-t): 4630 ng·h/mL
  Cmax: 825 ng/mL
  Tmax: 2 h
  half-life: 3.9 h
[5]; Dog 2, PO
  AUC(0-inf): 7740 ng·h/mL
  AUC(0-t): 7720 ng·h/mL
  Cmax: 1670 ng/mL
  Tmax: 3 h
  half-life: 2.8 h
[5]; Dog 3, PO
  AUC(0-inf): 6220 ng·h/mL
  AUC(0-t): 6210 ng·h/mL
  Cmax: 1580 ng/mL
  Tmax: 1 h
  half-life: 1.1 h
[5]; Mean, N 3 dogs
  AUC(0-inf): 6220 ng·h/mL
  AUC(0-t): 6190 ng·h/mL
  Cmax: 1360 ng/mL
  Tmax: 2 h
  half-life: 2.6 h
[5]; Median, N 3 dogs
  AUC(0-inf): 6220 ng·h/mL
  AUC(0-t): 6210 ng·h/mL
  Cmax: 1580 ng/mL
  Tmax: 2 h
  half-life: 2.8 h
[6]
  solubility: > 56 mg/mL
[7]
  Percent Inhibition (Average; N = 2): 44.47%

## C[N@@+]1(CC2CC2)CC[C@]23c4c5ccc(O)c4O[C@H]2C(=O)CC[C@@]3(O)C1C5 [R-methylnaltrexone]
[8]
  Activity at μ opioid receptor (agonist/antagonist): antagonist activity

## C[N+]1(CC2CC2)CC[C@]23c4c5ccc(O)c4O[C@H]2C(=O)CC[C@@]3(O)[C@H]1C5 (stereo partly shown) [S-methylnaltrexone]
[8]
  Activity at μ opioid receptor (agonist/antagonist): peripheral μ opioid agonist

## C[N+]1(CC2CC2)CC[C@]23c4c5ccc(O)c4O[C@H]2C(=O)CC[C@@]3(O)[C@H]1C5 (stereo partly shown) [methylnaltrexone]
[9]
  Solubility in water: freely soluble in water
